Reference: patent US9408850B2, “Substituted indazole derivatives active as kinase inhibitors” (NERVIANO MEDICAL SCIENCES S.R.L., priority 2011, dated 2016)
Where a name gives a salt, the structure may show the parent alone.

What was measured:
[1] = target: KIT cytoplasmic domain (GST fused protein) (Homo sapiens (Human), UniProt P10721); assay: Biochemical assay for inhibitors of KIT kinase activity; details: 4 nM pre activated enzyme, 4.4 microM ATP, 60 minutes at r.t.
Procedure: KIT cytoplasmic domain (aa 544-976end of the 976 aminoacid long full length sequence, accession number P10721 of UniProtKB/Swiss-Prot database) was cloned into pVL vector for expression in insect cells through the baculovirus system. The GST-KIT cytoplasmic domain has been expressed in Sf21 cells infected for 66 hrs at 27° C. The recombinant protein has been purified by affinity on GSH-sepharose and eluted with glutathione. […] General Principle-A specific peptidic substrate was trans-phosphorylated by the kinase in the presence of ATP traced with 33Pγ-ATP. At the end of the phosphorylation reaction, the not reacted ATP, cold and radioactive, was captured by an excess of dowex ion exchange resin that eventually settled by gravity to the bottom of the reaction plate. The supernatant was subsequently withdrawn and transferred into a counting plate that was then evaluated by β-counting. • ii. Dowex resin preparation-500 g of wet resin (SIGMA, custom prepared resin DOWEX 1×8 200-400 mesh, 2.5 Kg) were weighed out and diluted to 2 L in 150 mM sodium formate, pH 3.00. The resin was allowed to settle down overnight and then the supernatant was discarded. After three washes as above over a couple of days, the resin was allowed to settle and two volumes (with respect to the resin volume) were added of 150 mM sodium formate buffer. Biochemical Assay for Inhibitors of FLT3 Kinase Activity • i. Enzyme-The assay was performed using FLT3 cytoplasmic domain product and purified in house as GST fused protein. […] The peptide was purchased from American Peptide Company (Sunnyvale, Calif.). Biochemical Assay for Inhibitors of KIT Kinase Activity • i. Enzyme-The assay has been performed using KIT cytoplasmic domain product and purified in house as GST fused protein. […] NO: 2). The peptide was purchased from American Peptide Company (Sunnyvale, Calif.). Compound Testing • i. […] An automated station for serial dilutions (Biomek FX, Beckman) was used for producing 1:3 dilutions in 100% DMSO, from line A1 to A10, and for all the compounds in the column. […] The following dispensation into the plates plus 3 cycles of mixing, done by the robot itself, started the kinase reaction. At this point, the correct concentrations were restored for all the reagents. The robot incubated the plates for 60 minutes at r.t., and then stopped the reaction by pipetting 60 microL of dowex resin suspension into the reaction mix. In order to avoid tip clogging, wide bore tips were used to dispense the resin suspension. Three cycles of mixing were done immediately after the addition of the resin. Another mixing cycle was performed after all the plates were stopped, this time using normal tips: the plates were then allowed to rest for about one hour in order to allow resin sedimentation. […] Data Fitting-Data were analyzed by an internally customized version of the SW package “Assay Explorer” that provided sigmoidal fitting of the ten-dilutions curves for IC50 determination in the secondary assays/hit confirmation routines. Cell-Based Assays for Inhibitors of FLT3 Kinase Activity In vitro Cell Proliferation Assay for Inhibitors of FLT3 Kinase Activity

[2] = target: FLT3 cytoplasmic domain (GST fused protein) (Homo sapiens (Human), UniProt P36888); assay: Biochemical assay for inhibitors of FLT3 kinase activity; details: 2 nM pre activated enzyme, 254 microM ATP, 60 minutes at r.t.
Sequence of FLT3 cytoplasmic domain (GST fused protein) (P36888 564-993): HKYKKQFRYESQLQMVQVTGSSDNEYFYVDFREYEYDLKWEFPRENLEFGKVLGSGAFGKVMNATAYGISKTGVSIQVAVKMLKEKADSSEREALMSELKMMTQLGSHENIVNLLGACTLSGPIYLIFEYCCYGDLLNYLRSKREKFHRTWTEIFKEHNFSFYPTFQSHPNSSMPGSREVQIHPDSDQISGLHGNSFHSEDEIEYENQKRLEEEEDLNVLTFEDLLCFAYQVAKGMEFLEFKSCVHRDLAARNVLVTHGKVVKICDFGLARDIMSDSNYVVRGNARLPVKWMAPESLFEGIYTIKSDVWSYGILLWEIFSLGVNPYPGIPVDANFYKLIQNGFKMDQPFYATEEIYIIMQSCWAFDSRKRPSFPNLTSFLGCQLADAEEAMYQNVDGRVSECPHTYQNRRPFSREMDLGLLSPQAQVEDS
Procedure: FLT3 cytoplasmic domain (aa 564-993end of the 993 aminoacid long full length sequence, accession number P36888 of UniProtKB/Swiss-Prot. database) was amplified by PCR starting from a testis cDNA library and then cloned into pVL vector for expression in insect cells through the baculovirus system. The GST-FLT3 cytoplasmic domain has been expressed in Sf21 cells infected for 72 hours at 27° C. The recombinant protein has been purified by affinity on GSH-sepharose and eluted with glutathione. A further purification step has been performed on heparine sepharose. […] General Principle-A specific peptidic substrate was trans-phosphorylated by the kinase in the presence of ATP traced with 33Pγ-ATP. At the end of the phosphorylation reaction, the not reacted ATP, cold and radioactive, was captured by an excess of dowex ion exchange resin that eventually settled by gravity to the bottom of the reaction plate. The supernatant was subsequently withdrawn and transferred into a counting plate that was then evaluated by β-counting. • ii. Dowex resin preparation-500 g of wet resin (SIGMA, custom prepared resin DOWEX 1×8 200-400 mesh, 2.5 Kg) were weighed out and diluted to 2 L in 150 mM sodium formate, pH 3.00. The resin was allowed to settle down overnight and then the supernatant was discarded. After three washes as above over a couple of days, the resin was allowed to settle and two volumes (with respect to the resin volume) were added of 150 mM sodium formate buffer. Biochemical Assay for Inhibitors of FLT3 Kinase Activity • i. Enzyme-The assay was performed using FLT3 cytoplasmic domain product and purified in house as GST fused protein. […] NO: 1). The peptide was purchased from American Peptide Company (Sunnyvale, Calif.). Biochemical Assay for Inhibitors of KIT Kinase Activity • i. Enzyme-The assay has been performed using KIT cytoplasmic domain product and purified in house as GST fused protein. […] NO: 2). The peptide was purchased from American Peptide Company (Sunnyvale, Calif.). Compound Testing • i. […] An automated station for serial dilutions (Biomek FX, Beckman) was used for producing 1:3 dilutions in 100% DMSO, from line A1 to A10, and for all the compounds in the column. […] The following dispensation into the plates plus 3 cycles of mixing, done by the robot itself, started the kinase reaction. At this point, the correct concentrations were restored for all the reagents. The robot incubated the plates for 60 minutes at r.t., and then stopped the reaction by pipetting 60 microL of dowex resin suspension into the reaction mix. In order to avoid tip clogging, wide bore tips were used to dispense the resin suspension. Three cycles of mixing were done immediately after the addition of the resin. Another mixing cycle was performed after all the plates were stopped, this time using normal tips: the plates were then allowed to rest for about one hour in order to allow resin sedimentation. […] Data Fitting-Data were analyzed by an internally customized version of the SW package “Assay Explorer” that provided sigmoidal fitting of the ten-dilutions curves for IC50 determination in the secondary assays/hit confirmation routines. Cell-Based Assays for Inhibitors of FLT3 Kinase Activity In vitro Cell Proliferation Assay for Inhibitors of FLT3 Kinase Activity

Sequence of KIT cytoplasmic domain (GST fused protein) (P10721 544-976): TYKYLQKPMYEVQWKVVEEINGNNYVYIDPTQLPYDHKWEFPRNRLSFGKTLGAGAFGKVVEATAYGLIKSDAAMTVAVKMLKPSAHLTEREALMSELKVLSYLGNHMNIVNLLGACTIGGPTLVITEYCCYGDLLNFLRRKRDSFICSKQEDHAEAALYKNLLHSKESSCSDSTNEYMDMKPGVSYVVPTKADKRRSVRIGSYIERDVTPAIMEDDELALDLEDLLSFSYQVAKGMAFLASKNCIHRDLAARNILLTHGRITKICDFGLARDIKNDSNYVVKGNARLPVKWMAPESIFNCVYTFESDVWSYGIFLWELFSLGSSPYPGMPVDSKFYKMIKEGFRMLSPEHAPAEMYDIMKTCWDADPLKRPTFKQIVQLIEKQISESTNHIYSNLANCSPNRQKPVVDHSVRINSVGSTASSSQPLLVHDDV

SMILES	IC50 [1]	IC50 [2]
CN1CCN(c2ccc(C(=O)Nc3n[nH]c4cc(OCc5ccccc5)ccc34)cc2)CC1 [Cpd. 1, N-(6-Benzyloxy-1H-indazol-3-yl)-4-(4-methyl-piperazin-1-yl)-benzamide]	2800 nM	428 nM
CN1CCN(c2ccc(C(=O)Nc3n[nH]c4cc(Oc5ccccc5)ccc34)cc2)CC1 [Cpd. 2, 4-(4-Methyl-piperazin-1-yl)-N-(6-phenoxy-1H-indazol-3-yl)-benzamide]	172 nM	1130 nM
CN1CCN(c2ccc(C(=O)Nc3n[nH]c4cc(Oc5cccc(F)c5)ccc34)cc2)CC1 [Cpd. 3, N-[6-(3-Fluoro-phenoxy)-1H-indazol-3-yl]-4-(4-methyl-piperazin-1-yl)-benzamide]	564 nM	639 nM
CN1CCN(c2ccc(C(=O)Nc3n[nH]c4cc(Oc5ccc(OCc6ccccc6)cc5)ccc34)cc2)CC1 [Cpd. 4, N-[6-(4-Benzyloxy-phenoxy)-1H-indazol-3-yl]-4-(4-methyl-piperazin-1-yl)-benzamide]	> 10000 nM	974 nM
CN1CCN(c2ccc(C(=O)Nc3n[nH]c4cc(OCc5cccc(Oc6ccccc6)c5)ccc34)cc2)CC1 [Cpd. 5, 4-(4-Methyl-piperazin-1-yl)-N-[6-(3-phenoxy-benzyloxy)-1H-indazol-3-yl]-benzamide]	2620 nM	1170 nM
CN1CCN(c2ccc(C(=O)Nc3n[nH]c4cc(OC5CCN(Cc6ccccc6)CC5)ccc34)cc2)CC1 [Cpd. 6, N-[6-(1-Benzyl-piperidin-4-yloxy)-1H-indazol-3-yl]-4-(4-methyl-piperazin-1-yl)-benzamide]	6890 nM	248 nM
CN1CCN(c2ccc(C(=O)Nc3n[nH]c4cc(OCC#Cc5ccccc5)ccc34)cc2)CC1 [Cpd. 7, 4-(4-Methyl-piperazin-1-yl)-N-[6-(3-phenyl-prop-2-ynyloxy)-1H-indazol-3-yl]-benzamide]	1500 nM	249 nM
CN1CCN(c2ccc(C(=O)Nc3n[nH]c4cc(Oc5cccc(OCc6ccccc6)c5)ccc34)cc2)CC1 [Cpd. 9, N-[6-(3-Benzyloxy-phenoxy)-1H-indazol-3-yl]-4-(4-methyl-piperazin-1-yl)-benzamide]	713 nM	1500 nM
CN1CCN(c2ccc(C(=O)Nc3n[nH]c4cc(OCCOc5ccccc5)ccc34)cc2)CC1 [Cpd. 10, 4-(4-Methyl-piperazin-1-yl)-N-[6-(2-phenoxy-ethoxy)-1H-indazol-3-yl]-benzamide]	956 nM	< 50 nM
CN1CCN(c2ccc(C(=O)Nc3n[nH]c4cc(OCCOCc5ccccc5)ccc34)cc2)CC1 [Cpd. 11, N-[6-(2-Benzyloxy-ethoxy)-1H-indazol-3-yl]-4-(4-methyl-piperazin-1-yl)-benzamide]	113 nM	< 50 nM
C[N+]1([O-])CCN(c2ccc(C(=O)Nc3n[nH]c4cc(OCCOCc5ccccc5)ccc34)cc2)CC1 [Cpd. 14, N-[6-(2-Benzyloxy-ethoxy)-1H-indazol-3-yl]-4-(4-methyl-4-oxy-piperazin-1-yl)-benzamide]	118 nM	< 50 nM
CN(C)C1CCN(c2ccc(C(=O)Nc3n[nH]c4cc(OCCOCc5ccccc5)ccc34)cc2)CC1 [Cpd. 15, N-[6-(2-Benzyloxy-ethoxy)-1H-indazol-3-yl]-4-(4-dimethylamino-piperidin-1-yl)-benzamide]	76 nM	< 50 nM
CN(C)CCN(C)c1ccc(C(=O)Nc2n[nH]c3cc(OCCOCc4ccccc4)ccc23)cc1 [Cpd. 16, N-[6-(2-Benzyloxy-ethoxy)-1H-indazol-3-yl]-4-[(2-dimethylamino-ethyl)-methyl-amino]-benzamide]	106 nM	< 50 nM
CN(C)CCCN(C)c1ccc(C(=O)Nc2n[nH]c3cc(OCCOCc4ccccc4)ccc23)cc1 [Cpd. 17, N-[6-(2-Benzyloxy-ethoxy)-1H-indazol-3-yl]-4-[(3-dimethylamino-propyl)-methyl-amino]-benzamide]	146 nM	62 nM
CC(C)(C)OC(=O)N1CCN(c2ccc(C(=O)Nc3n[nH]c4cc(OCCOCc5ccccc5)ccc34)cc2)CC1 [Cpd. 18, 4-{4-[6-(2-Benzyloxy-ethoxy)-1H-indazol-3-ylcarbamoyl]-phenyl}-piperazine-1-carboxylic acid tert-butyl ester]	1390 nM	414 nM
CN1CCC(Nc2ccc(C(=O)Nc3n[nH]c4cc(OCCOCc5ccccc5)ccc34)cc2)CC1 [Cpd. 19, N-[6-(2-Benzyloxy-ethoxy)-1H-indazol-3-yl]-4-(1-methyl-piperidin-4-ylamino)-benzamide]	61 nM	< 50 nM
CN1CCC(Oc2ccc(C(=O)Nc3n[nH]c4cc(OCCOCc5ccccc5)ccc34)cc2)CC1 [Cpd. 22, N-[6-(2-Benzyloxy-ethoxy)-1H-indazol-3-yl]-4-(1-methyl-piperidin-4-yloxy)-benzamide]	55 nM	56 nM
O=C(Nc1n[nH]c2cc(OCCOCc3ccccc3)ccc12)c1ccc(NCCN2CCOCC2)cc1 [Cpd. 25, N-[6-(2-Benzyloxy-ethoxy)-1H-indazol-3-yl]-4-(2-morpholin-4-yl-ethylamino)-benzamide hydrochloride]	197 nM	74 nM
CN1CCC(CNc2ccc(C(=O)Nc3n[nH]c4cc(OCCOCc5ccccc5)ccc34)cc2)CC1 [Cpd. 27, N-[6-(2-Benzyloxy-ethoxy)-1H-indazol-3-yl]-4-[(1-methyl-piperidin-4-ylmethyl)-amino]-benzamide]	91 nM	< 50 nM
O=C(Nc1n[nH]c2cc(OCCOCc3ccccc3)ccc12)c1ccc(N2CC(N3CCCC3)C2)cc1 [Cpd. 28, N-[6-(2-Benzyloxy-ethoxy)-1H-indazol-3-yl]-4-(3-pyrrolidin-1-yl-azetidin-1-yl)-benzamide]	306 nM	136 nM
CN1CCN(c2cccc(C(=O)Nc3n[nH]c4cc(OCCOCc5ccccc5)ccc34)c2)CC1 [Cpd. 29, N-[6-(2-Benzyloxy-ethoxy)-1H-indazol-3-yl]-3-(4-methyl-piperazin-1-yl)-benzamide hydrochloride]	1080 nM	635 nM
